Experiment [1] has as its system SARS-CoV-2. The experiment can be described thus: Viral plaque reduction assay. Conditions: SARS-CoV-2-infected Vero E6 cells (m.o.i. 0.01), 1 μM and 10 μM, 72 hours; versus pathological control group. Format: cell-based.
For experiment [2], the system named is SARS-CoV-2. Format: cell-based. Conditions: Vero E6 cells pretreated at 0.3125 μM, 1.25 μM, and 5 μM, m.o.i. 0.01; normalized against GAPDH; versus pathological control group.
For the next experiment, the system named is HcoV-229E. The experiment can be described thus: Effect against HCoV-229E in Vero E6 cells (MTT cell viability). Format: cell-based, human coronavirus 229E. The method, then:
Vero E6 cells were divided into 6 groups, including one normal control group, one pathological control group, and four experimental groups (i.e., experimental groups 1 to 4). Each group of the Vero E6 cells was incubated in a respective well of a 96-well culture plate containing 100 μL of E2 medium at 2×10^4 cells/well, followed by cultivation in an incubator (37° C., 5% CO2) for 24 hours. Afterwards, the culture medium in each well was removed, and the cells of the experimental groups 1 to 4 were pretreated with 6-bromo-2-[1-(2,5-dimethylphenyl)-5-methyl-1H-pyrazol-4-yl]-quinoline-4-carboxylic acid (i.e., HP520-3) (Cat. No. Molport-020-176-277, Molport Inc.) respectively at concentrations of 39 nM, 78 nM, 156 nM, and 312 nM, followed by adding 150 μL of the HcoV-229E solution prepared in section 2 of General Experimental Materials. […]
Each group was cultivated in an incubator (37° C., 5% CO2) for 96 hours. […] After cultivation in an incubator (37° C., 5% CO2) for 2 hours, the respective resultant cell culture was added with 150 μL of dimethyl sulfoxide (DMSO), followed by subjecting the mixture thus obtained to determination of absorbance at a wavelength of 590 nm (OD590) by an ELISA reader.
The cell viability rate (%) was calculated using the following Equation (I): […]

What is called EC50 is the concentration that produces a half-maximal response. On to `Cc1ccc(C)c(-n2ncc(-c3cc(C(=O)O)c4cc(Br)ccc4n3)c2C)c1` [HP520-3, 6-bromo-2-[1-(2,5-dimethylphenyl)-5-methyl-1H-pyrazol-4-yl]-quinoline-4-carboxylic acid], for which the “number of viral plaques” value in the experiment with SARS-CoV-2 [1] was “lower than that determined in the pathological control group”. The “relative RNA expression level of E gene of SARS-CoV-2” value in the experiment on SARS-CoV-2 [2] is recorded as “significantly lower than that of the pathological control group”. Further, the cell viability rate entry with HcoV-229E (HcoV-229E-infected Vero E6 cells pretreated at 39 nM, 78 nM, 156 nM, and 312 nM, versus pathological control group) is “significantly higher than that determined in the pathological control group”. The molecule also registered an EC50 in the experiment with HcoV-229E (Human coronavirus 229E, Vero C1008, HcoV-229E-infected Vero E6 cells, 96 hours, MTT, n=3, mean±SD) of 141 ± 15.4 nM.

For the origin of these results see patent US20220088002A1, “METHOD AGAINST CORONAVIRUS INFECTION WITH QUINOLINE COMPOUND” (CHANG GUNG UNIVERSITY, priority 2020, published 2022).
